Measurements from a melting point compilation (Tetko et al.; mined from patent text by program, amines drawn as free bases though some values may be those of a salt).

First: C=C(C)C(=O)OCc1ccc(OC2CCCCO2)cc1 (configuration not stated)
Second: C=CCc1cc(NC(C)=O)ccc1OCC1(O)CN2CCC1CC2 (configuration not stated)
The melting point of the first is lower: 36 to 36.7 °C for the first, 170 to 172 °C for the second.

Compared with `CCOC(=O)c1cn(-c2ccc(F)cc2F)c2c(F)c(F)c(F)c(C)c2c1=O`, `CCOC(=O)c1cn(-c2cnnn2C)c2nc(Cl)c(F)cc2c1=O` is higher in melting point: 152 to 154 °C for the first, 251 °C for the second.

First: CCc1nc2c(cnn2CC)c(NC2CCOCC2)c1CNC(=O)c1cccc(C(=O)NCc2cc(Cl)cc(-c3cccc(C=O)c3)c2)c1
Second: CC(C)(C)[C@@H]1CCc2nc3sc(C(=O)N[C@H](CN)c4cccc(NC(=O)c5ccno5)c4)cc3cc2C1
The melting point of the first is higher: 123 to 127 °C for the first, 98 to 102 °C for the second.

First: O=C(O)CCNC1CCCN(c2ccc3c(C(=O)NCC45CC6CC(CC(C6)C4)C5)c(Cl)ccc3n2)C1 (configuration not stated)
Second: O=C(NCC1CCCCC1)c1c(Cl)ccc2nc(N3CC(O)C3)ccc12
The melting point of the first is lower: 176 to 189 °C for the first, 206 to 208 °C for the second.

First: Cc1nc2c(s1)-c1nc(Nc3ccc(O)cc3)ncc1CC2
Second: Cc1[nH]c2ccc(C3=NNC(=O)CC3)cc2c1-c1ccccc1
The melting point of the first is lower: 268 to 269 °C for the first, 297 to 299 °C for the second.

First: CCOC(=O)C(=CNc1ccc(OCC)nc1)C(=O)OCC
Second: CCOC(=O)C1=C(C)N=C(SCc2ccc(OC)cc2)N(C(=O)OCC)C1c1cccc(Cl)c1Cl (configuration not stated)
The melting point of the first is lower: 68 to 71 °C for the first, 124 to 126 °C for the second.

First: Cc1ccc(C(=O)NC(=O)N2CC2C#N)cc1 (configuration not stated)
Second: O=C(Nc1ccc(-c2c[nH]c(=O)cn2)cc1)c1ccc([N+](=O)[O-])cc1
The melting point of the first is lower: 177 to 180 °C for the first, 298 to 300 °C for the second.

First: C=CCNc1nc(-c2ccccc2)c(-c2ccc(=O)n(CC=C)n2)s1
Second: C=CCc1c(O)ccc2c1ccc(=O)n2CC=C
The melting point of the first is lower: 146 to 147 °C for the first, 205 to 206 °C for the second.

Compared with `O=C1C=C(c2c(-c3ccccc3)nn3ccccc23)CCN1`, `Cn1cc(-c2ccccc2)c(=O)c(-c2ccccc2C(F)(F)F)c1` is lower in melting point: 188 to 189 °C for the first, 168 to 171 °C for the second.

First: Brc1ccc(C2(c3ccccc3)OCCO2)cc1
Second: N#CCc1cccc2c(-c3ccc(Br)cc3)nccc12
The melting point of the first is lower: 54 to 56 °C for the first, 122 °C for the second.

`O=C1C=C(N2CCC3(CC2)CSC2=C(O3)c3ccccc3C(=O)C2=O)c2ccccc2C1=O` and `O=C1c2ccccc2C(=O)N1CC(=O)N1c2ccccc2N(Cc2cccc([N+](=O)[O-])c2)C(=O)[C@H]2CCC[C@H]21` (relative stereo) cannot be ordered by melting point: 250 to 260 °C for the first, 250 to 252 °C for the second.

First: CONS(=O)(=O)c1ccc(Cl)s1
Second: Cc1ccc(Cl)c(C(N)=O)c1N
The melting point of the first is lower: 65.5 to 66.5 °C for the first, 149 to 152 °C for the second.

Compared with `N#Cc1cccc2nc(CCC#Cc3ccccn3)oc12`, `COC(=O)CCCC#Cc1cc(Cl)ccc1NS(=O)(=O)c1cccc2ccccc12` is lower in melting point: 126 °C for the first, 93 to 95 °C for the second.

First: O=C(NC(=O)c1c(F)cccc1F)Nc1ccc(C(F)(F)F)cn1
Second: Cc1oc(-c2cccc(C(F)(F)F)c2)nc1COc1cccc(CN(O)C(N)=O)c1
The melting point of the first is higher: 215 to 220 °C for the first, 160 to 161 °C for the second.

First: COc1cccc(OC)c1C(=O)Nc1cc(C(C)(C)C)ns1
Second: COc1cc(C(=O)O)ccc1Oc1ccccc1N
The melting point of the first is higher: 266 to 267 °C for the first, 192 to 194 °C for the second.

Compared with `CCCc1ccc(-c2cc(F)c(-c3ccc(CC)s3)c(F)c2)cc1`, `O=C1CCc2c(-c3ccncc3)sc(-c3ccc(C(F)(F)F)cc3)c21` is higher in melting point: 45 °C for the first, 158 to 160 °C for the second.

First: CCOC(=O)c1cn2c3c(cc(CN4CCOCC4)cc3c1=O)OC(F)(F)C2
Second: CCOC(=O)c1cnc2c3c(ccc2c1Cl)C(=O)C(C(C)=O)C=N3 (configuration not stated)
The melting point of the first is lower: 176 to 177 °C for the first, 288 to 290 °C for the second.

First: NNC(=O)c1ccc2c(c1)C(=C(Cl)Cl)OC(C(Cl)(Cl)Cl)O2 (configuration not stated)
Second: CCC(=O)c1[nH]c2cc(Cl)ccc2c1NC(C)=O
The melting point of the first is lower: 182 to 183 °C for the first, greater than 270 °C for the second.

First: CC(C)NCC(O)c1ccc(OCc2ccccc2)c(C(N)=O)c1 (configuration not stated)
Second: CC(C)(C)OC(=O)N1CC=C(c2ccnc(C(=O)N(O)Cc3ccccc3)c2)CC1
The melting point of the first is higher: 135 to 138 °C for the first, 125 °C for the second.

First: Clc1ccc(-c2cc(C3CCN(CCc4ccccc4)CC3)no2)cc1
Second: O=C(COCc1csc(-c2ccc(F)cc2)n1)c1ccccc1
The melting point of the first is higher: 118 to 120 °C for the first, 104 to 106 °C for the second.

First: O=Cc1c2ccccc2c(C=O)c2c(Cl)cccc12
Second: O=S(=O)(c1ccccc1)c1c[nH]c2cccc(CCO)c12
The melting point of the first is higher: 186 to 189 °C for the first, 55 to 60 °C for the second.

Compared with `O=C(CN1CCOCC1)Nc1cccc2c1C(=O)c1c-2n[nH]c1-c1ccc(N2CCOCC2)cc1`, `CC(=O)N1CCN=C1c1ccc(NC(=O)C2=Cc3ccccc3OCC2)cc1` is lower in melting point: 258 °C for the first, 222 to 224 °C for the second.

Compared with `NS(=O)(=O)c1cccc(-c2cccc(-c3nc(-c4ccc(Cl)s4)cc(C(F)(F)F)n3)c2)c1`, `Cc1ccc(S(=O)(=O)n2ccc3c(-c4c(-c5ccc(F)cc5)nc5ccc(Cl)nn45)ccnc32)cc1` is higher in melting point: 226 °C for the first, 244 to 246 °C for the second.

First: O=C1N(Cc2ccc(C(F)(F)F)o2)c2ccccc2C12COc1ccc(Br)cc12 (configuration not stated)
Second: O=C1c2ccccc2C(=O)N1Cc1cc(Cl)ccc1OCc1cccnc1
The melting point of the first is lower: 143 to 145 °C for the first, 173 to 175 °C for the second.

First: CCC(C(=O)C(C)C(O)C(C)CCCC(=O)c1c(NC(C)=O)cc(C)c(O)c1C(=O)O)C1OC(CC)(C2CCC(O)(CC)C(C)O2)CC1C (configuration not stated)
Second: CC(C)N(C[C@@H](O)[C@@H](C(=O)[C@H](CC(N)=O)NC(=O)c1ccccc1)C(N)c1ccccc1)NC(=O)OC(C)(C)C (some centres not stated)
The melting point of the first is higher: 190 to 192 °C for the first, 182 to 185 °C for the second.

First: COC(=O)C1=C(C)NC(C)=C(/C=C/S(=O)(=O)N(C)Cc2ccccc2)C1c1cccc([N+](=O)[O-])c1 (configuration not stated)
Second: CCOC(=O)c1ccccc1N(CC(=O)N(C)c1ccccc1)C(=O)CNC(=O)Nc1cccc(CO)c1
The melting point of the first is higher: 208 to 210 °C for the first, 184 °C for the second.

First: N=C(NO)c1cccc2nc(N[C@@H]3CCc4ccccc43)ccc12
Second: CCc1nn(-c2ccc(F)cc2)c2cc(C3=CCC(C(=O)O)CC3)ccc12 (configuration not stated)
The melting point of the first is lower: 200 °C for the first, 214 to 216 °C for the second.

`O=C(NC1CCCCC1)NS(=O)(=O)c1ccc2c(c1)CCN(C(=O)N1CCCC1)CC2` and `O=C(c1ccc2c(c1)C(=O)N1CCC[C@H]1CO2)N1CCCCC1` cannot be ordered by melting point: 139 to 141 °C for the first, 140 °C for the second.

First: COCON=C(C(=O)C=CN(C)C)C(=O)OC
Second: COC(=O)c1ccc(CCN(C)CCCC(C#N)(C(=O)OC)c2ccc(OC)c(OC)c2)cc1 (configuration not stated)
The melting point of the first is higher: 99 to 100 °C for the first, 80 to 83 °C for the second.

First: CC(C)(C)C(=O)C(Oc1ccc(Cl)cc1)c1cccnc1 (configuration not stated)
Second: CC(C)(C)OC(=O)N1C[C@H](NS(=O)(=O)c2ccc(Cl)cc2)C[C@H]1C=O
The melting point of the first is lower: 50 °C for the first, 120 to 122 °C for the second.

Compared with `Cc1nc(N2CCC(Cc3ccc(F)cc3)C2=O)sc1C(=O)NCc1ccc(F)cc1` (configuration not stated), `O=c1c2ccc(Cl)cc2[nH]c2c(=O)n(-c3ccc(F)cc3)nc(O)c12` is higher in melting point: 196 to 197 °C for the first, 390 to 392 °C for the second.

Compared with `COc1ccc(C=CC(=O)Nc2cnc3c(C)cc(C)cc3c2-c2ccccc2Cl)c(OC)c1OC`, `COc1ccccc1CC(=O)N1CCCc2ncc3ccccc3c21` is lower in melting point: 200 to 201 °C for the first, 108 to 111 °C for the second.

First: Cc1nc2c(cnn2-c2c(Cl)cc(C(F)(F)F)cc2Cl)c(=O)n1C
Second: CCOC(=O)n1nc(Oc2c(F)cc(C(F)(F)F)cc2Cl)cc1C
The melting point of the first is higher: 195 °C for the first, 127 to 129 °C for the second.

First: CC(=O)OC1CC(OCc2ccccc2)C2COC1O2 (configuration not stated)
Second: O=C1N(Cc2ccccc2)C(O)C2CSC(c3ccccc3)N12 (mixture of isomers)
The melting point of the first is lower: 85 to 87 °C for the first, 151 to 153 °C for the second.

`CC(=O)N1CCC(C2=C(C#N)C(c3cccc4nonc34)c3c[nH]nc3N2)CC1` (configuration not stated) and `Cc1nc(N2CCc3ccccc3CC2)c(C#N)c(=O)[nH]1` cannot be ordered by melting point: 248 °C for the first, greater than 200 °C for the second.

First: c1cc2c3c(cccc3c1)C(NCCCCn1ccnc1)=N2
Second: CC(=NNC(=O)c1ccncc1)c1ccc2nnn(Cc3ccc4ncccc4c3)c2n1
The melting point of the first is lower: 225 to 230 °C for the first, 239 to 241 °C for the second.

First: COC(=O)[C@@H]1CCCN1S(=O)(=O)c1ccc(Cl)c(COc2cccc3cc(C(F)(F)F)c(C)nc23)c1Cl
Second: Nc1ncccc1OCc1c(Cl)cccc1Cl
The melting point of the first is higher: 165 to 167 °C for the first, 141 to 142 °C for the second.

First: COc1cc(O)cc(C(F)(F)F)c1
Second: O=C(c1c[nH]c2cc(F)ccc12)C(F)(F)F
The melting point of the first is lower: 75 °C for the first, 234 to 235 °C for the second.

Compared with `CC1(CN2CCC(N3CCNC3=O)CC2)OCc2ccccc2-n2cccc21` (configuration not stated), `CCOc1cccc(OC)c1CN1CCC(=O)C(C(c2ccccc2)c2ccccc2)C1` (configuration not stated) is lower in melting point: 197 to 199 °C for the first, 137 to 138 °C for the second.

First: c1cc(-c2cc(C3CC3)on2)ccn1
Second: CN(C)c1ccc(-c2cc3nccnc3[nH]2)cc1
The melting point of the first is lower: 76 to 80 °C for the first, 297 to 298 °C for the second.

First: NC(=O)c1cc2ccc(F)cc2nc1N
Second: COC(=O)c1cc(OC)c(Cc2c(N)nc(N)nc2Cl)c(OC)c1
The melting point of the first is higher: 259 to 262 °C for the first, 228 to 229 °C for the second.

First: c1ccc(CSc2nc3cc4c(cc3[nH]2)OCCO4)nc1
Second: c1ccc2nn(-c3cscn3)cc2c1
The melting point of the first is higher: 155 to 156 °C for the first, 146 to 147 °C for the second.

Compared with `CC(=O)NC(C)Cn1cc(-c2ccccc2)c2ccccc2c1=O` (configuration not stated), `CCn1c(C)c(C2(N(c3ccccc3)c3ccccc3)OCc3cccnc32)c2ccccc21` (configuration not stated) is lower in melting point: 177 °C for the first, 132 to 136 °C for the second.

First: CN(C)c1c(F)c(F)c(F)c2c1c(=O)c(C(=O)O)cn2C1COC1
Second: CC(=O)Nc1cc(-n2c(=O)cc(C(F)(F)F)n(C)c2=O)c(F)cc1Cl
The melting point of the first is lower: 173 to 175 °C for the first, 257 to 258 °C for the second.

Compared with `COc1ccc([N+](=O)[O-])c(/C=C/c2cc(/C=C/c3ccc4cc[nH]c4c3)n[nH]2)c1`, `COc1ccc2c3c(c(=O)oc2c1)CNCC3` is higher in melting point: 104 to 109 °C for the first, 171 to 180 °C for the second.

First: O=C(O)CCCCNS(=O)(=O)c1ccc(N2CCCCCC2)cc1
Second: CCCCN(C(=O)N[C@@H](CC(=O)O)c1ccc2c(c1)OCO2)C1CC(=O)N(Cc2ccccc2)C1=O (some centres not stated)
The melting point of the first is higher: 135 to 140 °C for the first, 80 to 85 °C for the second.

Compared with `O=C(O)C(=O)c1ccc(OCCOc2ccc(Oc3ccccc3)cc2)cc1`, `O=CC(=Cc1ccc(O)cc1)C(C=O)=Cc1ccc(O)cc1` is higher in melting point: 124 to 126 °C for the first, 244 to 246 °C for the second.

First: CCC(CC)Nc1c(NCc2ccc(Cl)c(Cl)c2)c(=O)c1=O
Second: CCCc1nc2c(N)nc(C)c(C)c2n1CCCC(N)=O
The melting point of the first is higher: 268 to 269 °C for the first, 226 to 228 °C for the second.

Work on `CN(C)c1ccc(NC(=O)N(CCC2=CCCCC2)C[C@H]2CC[C@H](CN(CCC3=CCCCC3)C(=O)Nc3ccc(N(C)C)cc3)CC2)cc1` yielded a melting point of 152 to 155 °C.
